Key:
[1] = co-administration with ketoconazole; inhibition of metabolic elimination of cisapride; cited from earlier work
5-HT3 receptor = biological target: T1, 5-HT3 receptor (Mus musculus, UniProt P23979); test: Radioligand binding to 5-HT3 receptor subtypes derived from N1E-115 cells (Cerep); details: Table 3; ratio of IC50 at 5-HT3 to IC50 at 5-HT4
T1 construct: host or cells: N1E-115 cells
T1 sequence (P23979 24-489): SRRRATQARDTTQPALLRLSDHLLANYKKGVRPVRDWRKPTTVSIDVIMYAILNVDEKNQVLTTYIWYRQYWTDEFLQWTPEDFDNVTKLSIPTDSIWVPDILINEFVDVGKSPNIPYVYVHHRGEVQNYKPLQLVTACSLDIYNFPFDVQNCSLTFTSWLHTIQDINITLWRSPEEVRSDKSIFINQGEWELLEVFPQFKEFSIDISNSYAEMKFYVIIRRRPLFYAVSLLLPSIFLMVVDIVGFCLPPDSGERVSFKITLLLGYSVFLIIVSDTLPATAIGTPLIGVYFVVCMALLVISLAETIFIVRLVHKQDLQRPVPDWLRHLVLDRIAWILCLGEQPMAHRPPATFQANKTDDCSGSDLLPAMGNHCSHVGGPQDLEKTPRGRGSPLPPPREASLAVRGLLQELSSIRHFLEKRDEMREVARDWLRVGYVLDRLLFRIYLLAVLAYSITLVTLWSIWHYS
Experimental: Following incubation with the appropriate ligands, the preparations were rapidly filtered under vacuum through GF/B glass fiber filters and washed with ice-cold buffer using a Brandel or Packard cell harvester.
Specific radioligand binding to the receptor was defined as the difference between total binding and nonspecific binding determined in the presence of an excess of unlabeled ligand. Results were expressed as a percent inhibition of specific binding obtained in the presence of the compounds.

Row | 5-HT3/5-HT4 Ratio (5-HT3 receptor) | SMILES | increase of the steady-state plasma levels [1] [fold]
1 | – | COc1cc(N)c(Cl)cc1C(=O)N[C@H]1CCN(CCCOc2ccc(F)cc2)C[C@H]1OC (racemic) [(±) Cisapride, cis-4-amino-5-chloro-N-[1-[3-(4-fluorophenoxy)propyl]-3-methoxy-4-piperidinyl]-2-methoxybenzamide] | 8
2 | 0.012 | COc1cc(N)c(Cl)cc1C(=O)NC1CCNCC1OC (racemic) [(±) Norcisapride, 4-amino-5-chloro-N-(3-methoxy-4-piperidinyl)-2-methoxybenzamide] | –
3 | 0.014 | COc1cc(N)c(Cl)cc1C(=O)NC1CCNCC1OC (single isomer, unassigned; (+)) [(+) Norcisapride] | –
4 | 0.023 | COc1cc(N)c(Cl)cc1C(=O)NC1CCNCC1OC (single isomer, unassigned; (-)) [(−) Norcisapride] | –

— patent publication US6548518B2, “Methods of treating gastro-esophogeal reflux disease using (-) norcisapride in combination with proton pump inhibitors or H2 receptor antagonists” (Sepracor, Inc., priority 1999, dated 2003)
